In the NIST ThermoML archive (doi:10.1021/acs.jced.8b00554):
± gives the expanded uncertainty stated by the source.

Assay: xn = mol fraction of the nth substance listed
Details: Liquid, Vibrating tube method

CCCCCCCC [octane] + CCCO
Details	mass density [kg/m3]
343.15 K, 15010 kPa, x2 = 0.7301	726.47 ± 4.7
343.15 K, 15020 kPa, x2 = 0.4411	698 ± 4.5
343.15 K, 16000 kPa, x2 = 0.2111	685.06 ± 4.4
343.15 K, 16000 kPa, x2 = 0.3158	690.66 ± 4.4
343.15 K, 16000 kPa, x2 = 0.4411	699.01 ± 4.5
343.15 K, 16010 kPa, x2 = 0.1631	682.9 ± 4.4
343.15 K, 16010 kPa, x2 = 0.7301	727.46 ± 4.7
343.15 K, 16010 kPa, x2 = 0.8823	750.92 ± 4.8
343.15 K, 17000 kPa, x2 = 0.8823	751.86 ± 4.8
343.15 K, 17010 kPa, x2 = 0.1631	683.85 ± 4.4
343.15 K, 17010 kPa, x2 = 0.2111	686.08 ± 4.4
343.15 K, 17010 kPa, x2 = 0.3158	691.65 ± 4.4
343.15 K, 17010 kPa, x2 = 0.4411	699.99 ± 4.5
343.15 K, 17010 kPa, x2 = 0.7301	728.43 ± 4.7
343.15 K, 18000 kPa, x2 = 0.1631	684.83 ± 4.4
343.15 K, 18000 kPa, x2 = 0.7301	729.35 ± 4.7
343.15 K, 18010 kPa, x2 = 0.3158	692.6 ± 4.5
343.15 K, 18010 kPa, x2 = 0.4411	700.97 ± 4.5
343.15 K, 18020 kPa, x2 = 0.2111	687.03 ± 4.4
343.15 K, 18020 kPa, x2 = 0.8823	752.76 ± 4.8
343.15 K, 19000 kPa, x2 = 0.1631	685.78 ± 4.4
343.15 K, 19010 kPa, x2 = 0.3158	693.56 ± 4.5
343.15 K, 19010 kPa, x2 = 0.8823	753.68 ± 4.8
343.15 K, 19020 kPa, x2 = 0.2111	687.96 ± 4.4
343.15 K, 19020 kPa, x2 = 0.4411	701.92 ± 4.5
343.15 K, 19020 kPa, x2 = 0.7301	730.28 ± 4.7
343.15 K, 20000 kPa, x2 = 0.7301	731.24 ± 4.7
343.15 K, 20010 kPa, x2 = 0.1631	686.67 ± 4.4
343.15 K, 20010 kPa, x2 = 0.2111	688.89 ± 4.4
343.15 K, 20010 kPa, x2 = 0.3158	694.48 ± 4.5
343.15 K, 20010 kPa, x2 = 0.4411	702.85 ± 4.5
343.15 K, 20020 kPa, x2 = 0.8823	754.54 ± 4.8
353.15 K, 100 kPa, x2 = 0.1631	654.7 ± 4.2
353.15 K, 100 kPa, x2 = 0.2111	656.5 ± 4.2
353.15 K, 100 kPa, x2 = 0.3158	661.43 ± 4.2
353.15 K, 100 kPa, x2 = 0.4411	669.56 ± 4.3
353.15 K, 100 kPa, x2 = 0.7301	697.88 ± 4.5
353.15 K, 100 kPa, x2 = 0.8823	723.05 ± 4.6
353.15 K, 1000 kPa, x2 = 0.3158	663.09 ± 4.2
353.15 K, 1010 kPa, x2 = 0.1631	656.23 ± 4.2
353.15 K, 1010 kPa, x2 = 0.2111	658.1 ± 4.2
353.15 K, 1010 kPa, x2 = 0.4411	671.12 ± 4.3
353.15 K, 1010 kPa, x2 = 0.8823	724.42 ± 4.6
353.15 K, 1020 kPa, x2 = 0.7301	699.6 ± 4.5
353.15 K, 2000 kPa, x2 = 0.4411	672.33 ± 4.3
353.15 K, 2010 kPa, x2 = 0.2111	659.4 ± 4.2
353.15 K, 2010 kPa, x2 = 0.3158	664.39 ± 4.3
353.15 K, 2020 kPa, x2 = 0.1631	657.52 ± 4.2
353.15 K, 2020 kPa, x2 = 0.7301	700.81 ± 4.5
353.15 K, 2020 kPa, x2 = 0.8823	725.57 ± 4.7
353.15 K, 3000 kPa, x2 = 0.1631	658.76 ± 4.2
353.15 K, 3000 kPa, x2 = 0.7301	702.03 ± 4.5
353.15 K, 3010 kPa, x2 = 0.3158	665.6 ± 4.3
353.15 K, 3010 kPa, x2 = 0.4411	673.58 ± 4.3
353.15 K, 3010 kPa, x2 = 0.8823	726.72 ± 4.7
353.15 K, 3020 kPa, x2 = 0.2111	660.63 ± 4.2
353.15 K, 4000 kPa, x2 = 0.8823	727.86 ± 4.7
353.15 K, 4010 kPa, x2 = 0.2111	661.88 ± 4.2
353.15 K, 4010 kPa, x2 = 0.3158	666.84 ± 4.3
353.15 K, 4010 kPa, x2 = 0.4411	674.84 ± 4.3
353.15 K, 4010 kPa, x2 = 0.7301	703.25 ± 4.5
353.15 K, 4020 kPa, x2 = 0.1631	659.99 ± 4.2
353.15 K, 5000 kPa, x2 = 0.2111	663.08 ± 4.2
353.15 K, 5000 kPa, x2 = 0.4411	676.07 ± 4.3
353.15 K, 5010 kPa, x2 = 0.1631	661.2 ± 4.2
353.15 K, 5010 kPa, x2 = 0.3158	668.06 ± 4.3
353.15 K, 5010 kPa, x2 = 0.7301	704.44 ± 4.5
353.15 K, 5020 kPa, x2 = 0.8823	729.03 ± 4.7
353.15 K, 6000 kPa, x2 = 0.4411	677.27 ± 4.3
353.15 K, 6000 kPa, x2 = 0.7301	705.64 ± 4.5
353.15 K, 6010 kPa, x2 = 0.3158	669.31 ± 4.3
353.15 K, 6020 kPa, x2 = 0.1631	662.41 ± 4.2
353.15 K, 6020 kPa, x2 = 0.2111	664.26 ± 4.3
353.15 K, 6020 kPa, x2 = 0.8823	730.16 ± 4.7
353.15 K, 7000 kPa, x2 = 0.7301	706.83 ± 4.5
353.15 K, 7000 kPa, x2 = 0.8823	731.28 ± 4.7
353.15 K, 7010 kPa, x2 = 0.1631	663.61 ± 4.2
353.15 K, 7010 kPa, x2 = 0.2111	665.47 ± 4.3
353.15 K, 7020 kPa, x2 = 0.3158	670.48 ± 4.3
353.15 K, 7020 kPa, x2 = 0.4411	678.5 ± 4.3
353.15 K, 8010 kPa, x2 = 0.1631	664.82 ± 4.3
353.15 K, 8010 kPa, x2 = 0.3158	671.68 ± 4.3
353.15 K, 8010 kPa, x2 = 0.4411	679.69 ± 4.4
353.15 K, 8010 kPa, x2 = 0.7301	708 ± 4.5
353.15 K, 8020 kPa, x2 = 0.2111	666.69 ± 4.3
353.15 K, 8020 kPa, x2 = 0.8823	732.4 ± 4.7
353.15 K, 9000 kPa, x2 = 0.1631	666 ± 4.3
353.15 K, 9010 kPa, x2 = 0.2111	667.86 ± 4.3
353.15 K, 9010 kPa, x2 = 0.3158	672.89 ± 4.3
353.15 K, 9010 kPa, x2 = 0.4411	680.87 ± 4.4
353.15 K, 9010 kPa, x2 = 0.7301	709.2 ± 4.5
353.15 K, 9020 kPa, x2 = 0.8823	733.54 ± 4.7
353.15 K, 10000 kPa, x2 = 0.8823	734.63 ± 4.7
353.15 K, 10010 kPa, x2 = 0.1631	667.15 ± 4.3
353.15 K, 10010 kPa, x2 = 0.2111	669.02 ± 4.3
